Experimental data reported in US9255295B2, “Method for evaluating the sensitizing potential of a test compound” (IMMUNOSEARCH, priority 2010, dated 2016).
Where two headings read alike, the source gives them in different places.

Experiments:
[1] = system: EPISKIN model; assay: Sensitizing power: sensitizing potential retested at successive dilutions in the EPISKIN model
[2] = system: ARE gene family (AKR1B10, AKR1C1, AKR1C2, CYP1B1, FTH1P, FTL, G6PD, GCLM, NQO2, SLC7A11, TXNRD1, UGT1A1, UGT1A9, YWHAZ, CD36, CYP1A1, GCLC, HMOX1, NQO1, PSME2 …); conditions: human

## Oc1ccc(O)cc1 [Hydroquinone]
[1]; 1%
  sensitizing potential (Sensitizing / Non-sensitizing): Sensitizing
[1]; 10%
  sensitizing potential (Sensitizing / Non-sensitizing): Sensitizing
[1]; 50%
  sensitizing potential (Sensitizing / Non-sensitizing): Sensitizing
[1]; from successive dilutions 50%, 10%, 1%, 0.1%
  sensitizing power (class): STRONG
[2]; 15 min, 0.1 %
  AHR expression compared to control: 0.8
  ARE >1.3 (NUMBER OF GENES): 5
  GCLM expression compared to control: 0.7
  NQO2 expression compared to control: 0.9
  SLC7A11 expression compared to control: 1.3
  TOTAL ARE (NUMBER OF GENES): 5
  UGT1A9 expression compared to control: 0.8
[2]; 15 min, 1 %
  AHR expression compared to control: 0.6
  ARE >1.3 (NUMBER OF GENES): 9
  GCLM expression compared to control: 1.8
  NQO2 expression compared to control: 1.4
  SLC7A11 expression compared to control: 1.5
  TOTAL ARE (NUMBER OF GENES): 9
  UGT1A9 expression compared to control: 1.5
[2]; 15 min, 10 %
  AHR expression compared to control: 0.6
  ARE >1.3 (NUMBER OF GENES): 13
  GCLM expression compared to control: 2.0
  NQO2 expression compared to control: 1.5
  SLC7A11 expression compared to control: 1.6
  TOTAL ARE (NUMBER OF GENES): 13
  UGT1A9 expression compared to control: 1.3
[2]; 15 min, 50 %
  ARE >1.3 (NUMBER OF GENES): 15
  TOTAL ARE (NUMBER OF GENES): 15
[2]; 6 h, 0.1 %
  AKR1B10 expression compared to control: 0.9
  AKR1C1 expression compared to control: 1.2
  AKR1C2 expression compared to control: 0.7
  CD36 expression compared to control: 0.7
  CYP1A1 expression compared to control: 8.0
  CYP1B1 expression compared to control: 1.8
  FTH1P expression compared to control: 1.2
  FTL expression compared to control: 1.5
  GCLC expression compared to control: 1.3
  HMOX1 expression compared to control: 1.1
  NQO1 expression compared to control: 1.2
  S100A8 expression compared to control: 1.1
  TXNRD1 expression compared to control: 2.3
  UGT1A1 expression compared to control: 1.7
[2]; 6 h, 1 %
  AKR1B10 expression compared to control: 1.0
  AKR1C1 expression compared to control: 2.0
  AKR1C2 expression compared to control: 1.3
  CD36 expression compared to control: 0.7
  CYP1A1 expression compared to control: 15.4
  CYP1B1 expression compared to control: 7.1
  FTH1P expression compared to control: 1.3
  FTL expression compared to control: 1.5
  GCLC expression compared to control: 1.3
  HMOX1 expression compared to control: 1.0
  NQO1 expression compared to control: 1.3
  S100A8 expression compared to control: 1.4
  TXNRD1 expression compared to control: 2.1
  UGT1A1 expression compared to control: 1.4
[2]; 6 h, 10 %
  AKR1B10 expression compared to control: 1.0
  AKR1C1 expression compared to control: 2.6
  AKR1C2 expression compared to control: 1.8
  CD36 expression compared to control: 0.7
  CYP1A1 expression compared to control: 33.2
  CYP1B1 expression compared to control: 17.1
  FTH1P expression compared to control: 1.4
  FTL expression compared to control: 1.9
  GCLC expression compared to control: 1.5
  HMOX1 expression compared to control: 1.2
  NQO1 expression compared to control: 1.5
  S100A8 expression compared to control: 1.4
  TXNRD1 expression compared to control: 2.6
  UGT1A1 expression compared to control: 1.5
[2]; 6 h, 50 %
  AHR expression compared to control: 0.9
  AKR1B10 expression compared to control: 1.1
  AKR1C1 expression compared to control: 3.5
  AKR1C2 expression compared to control: 3.7
  CD36 expression compared to control: 0.8
  CYP1A1 expression compared to control: 57.8
  CYP1B1 expression compared to control: 49.5
  FTH1P expression compared to control: 2.1
  FTL expression compared to control: 3.5
  GCLC expression compared to control: 2.4
  GCLM expression compared to control: 3.8
  HMOX1 expression compared to control: 3.5
  NQO1 expression compared to control: 2.8
  NQO2 expression compared to control: 2.0
  S100A8 expression compared to control: 1.4
  SLC7A11 expression compared to control: 5.4
  TXNRD1 expression compared to control: 7.9
  UGT1A1 expression compared to control: 1.9
  UGT1A9 expression compared to control: 1.7
